From the NIST ThermoML archive (doi:10.1021/je100693c)
Where “and” joins values, the source holds several entries; their conditions need not be identical. Equal values may be shown once. Numbers after ± are expanded uncertainties.

What was measured:
[1] = xn = mol fraction of the nth substance listed; settings: 101 kPa, Liquid, Vibrating tube method
[2] = excess molar enthalpy (molar enthalpy of mixing); xn = mol fraction of the nth substance listed; settings: 101 kPa, Liquid
[3] = 101 kPa, Liquid, Vibrating tube method

CCCCn1cc[n+](C)c1.F[B-](F)(F)F [1-butyl-3-methylimidazolium tetrafluoroborate] + OCC(F)(F)F
[1], x1 = 1
Settings | mass density [kg/m3]
283.15 K | 1213.3 ± 2.8
293.15 K | 1205.9 ± 2.8
303.15 K | 1198.6 ± 2.8
313.15 K | 1191.4 ± 2.7
323.15 K | 1184.4 ± 2.7
333.15 K | 1177.4 ± 2.7

OCC(F)(F)F [2,2,2-trifluoroethanol] + CCn1cc[n+](C)c1.F[B-](F)(F)F
Settings | excess molar enthalpy [kcal/mol] | mass density [kg/m3]
[1], 293.14 K, x2 = 0 | – | 1389.7 ± 0.8
[1], 293.14 K, x2 = 0.755 | – | 1299.6 ± 1.9
[1], 293.15 K, x2 = 0.099 | – | 1373.3 ± 0.8
[1], 293.16 K, x2 = 0.305 | – | 1340.6 ± 0.9
[1], 293.17 K, x2 = 0.5164 | – | 1318.4 ± 1.2
[1], 303.16 K, x2 = 0.5164 | – | 1308.9 ± 1.2
[1], 303.17 K, x2 = 0.099 | – | 1359.1 ± 0.8
[1], 303.17 K, x2 = 0.755 | – | 1291.3 ± 1.9
[1], 303.18 K, x2 = 0.305 | – | 1329.4 ± 0.9
[1], 303.19 K, x2 = 0 | – | 1372.4 ± 0.8
[1], 313.15 K, x2 = 0 | – | 1354.8 ± 0.8
[1], 313.15 K, x2 = 0.099 | – | 1344.7 ± 0.8
[1], 313.16 K, x2 = 0.305 | – | 1318.4 ± 0.9
[1], 313.16 K, x2 = 0.755 | – | 1282.9 ± 1.9
[1], 313.19 K, x2 = 0.5164 | – | 1299.3 ± 1.2
[1], 323.12 K, x2 = 0.099 | – | 1330.5 ± 0.8
[1], 323.14 K, x2 = 0.5164 | – | 1290.2 ± 1.2
[1], 323.15 K, x2 = 0 | – | 1336.6 ± 0.8
[1], 323.15 K, x2 = 0.305 | – | 1307.3 ± 0.9
[1], 323.2 K, x2 = 0.755 | – | 1274.7 ± 1.9
[1], 333.14 K, x2 = 0.755 | – | 1266.8 ± 1.9
[1], 333.15 K, x2 = 0 | – | 1317.8 ± 0.8
[1], 333.15 K, x2 = 0.5164 | – | 1281.1 ± 1.2
[1], 333.16 K, x2 = 0.305 | – | 1296.4 ± 0.9
[1], 333.2 K, x2 = 0.099 | – | 1315.8 ± 0.8
[2], 298.15 K, x2 = 0.0555 | 0.0929 ± 0.00382 | –
[2], 298.15 K, x2 = 0.1114 | 0.15 ± 0.00574 | –
[2], 298.15 K, x2 = 0.1904 | 0.256 ± 0.00956 | –
[2], 298.15 K, x2 = 0.3199 | 0.288 ± 0.0105 | –
[2], 298.15 K, x2 = 0.4137 | 0.273 ± 0.01 | –
[2], 298.15 K, x2 = 0.4847 | 0.25 ± 0.00932 | –
[2], 298.15 K, x2 = 0.5852 | 0.208 ± 0.00789 | –
[2], 298.15 K, x2 = 0.7016 | 0.155 ± 0.00598 | –
[2], 298.15 K, x2 = 0.79 | 0.112 ± 0.00454 | –
[2], 298.15 K, x2 = 0.9039 | 0.0506 ± 0.00234 | –
[2], 323.15 K, x2 = 0.0555 | 0.0535 ± 0.00239 | –
[2], 323.15 K, x2 = 0.1114 | 0.0933 ± 0.00382 | –
[2], 323.15 K, x2 = 0.1904 | 0.172 ± 0.00669 | –
[2], 323.15 K, x2 = 0.2477 | 0.181 ± 0.00693 | –
[2], 323.15 K, x2 = 0.3199 | 0.185 ± 0.00693 | –
[2], 323.15 K, x2 = 0.4137 | 0.171 ± 0.00645 | –
[2], 323.15 K, x2 = 0.4847 | 0.155 ± 0.00598 | –
[2], 323.15 K, x2 = 0.5852 | 0.126 ± 0.00502 | –
[2], 323.15 K, x2 = 0.7016 | 0.0908 ± 0.00382 | –
[2], 323.15 K, x2 = 0.79 | 0.0632 ± 0.00287 | –
[2], 323.15 K, x2 = 0.9216 | 0.0233 ± 0.00148 | –

OCC(F)(F)F [2,2,2-trifluoroethanol]
[3]
Settings | mass density
283.15 K | 1408.2 ± 0.8 kg/m3
293.14 K | 1389.7 ± 0.8 kg/m3
293.15 K | 1391.1 ± 0.8 kg/m3
303.15 K | 1373.8 ± 0.8 kg/m3
303.19 K | 1372.4 ± 0.8 kg/m3
313.15 K | 1356.1 ± 0.8 kg/m3 and 1354.8 ± 0.8 kg/m3
323.15 K | 1338 ± 0.8 kg/m3 and 1336.6 ± 0.8 kg/m3
333.15 K | 1317.8 ± 0.8 kg/m3 and 1319.1 ± 0.8 kg/m3

CCn1cc[n+](C)c1.F[B-](F)(F)F [1-ethyl-3-methylimidazolium tetrafluoroborate] + OCC(F)(F)F
[1], x1 = 1
Settings | mass density [kg/m3]
293.1 K | 1284.3 ± 3.2
303.11 K | 1276.5 ± 3.2
313.15 K | 1269.2 ± 3.1
323.14 K | 1261.8 ± 3.1
333.23 K | 1254.6 ± 3

CCCCn1cc[n+](C)c1.F[B-](F)(F)F [1-butyl-3-methylimidazolium tetrafluoroborate]
[3]
Settings | mass density [kg/m3]
283.15 K | 1213.3 ± 2.8
293.15 K | 1205.9 ± 2.8
303.15 K | 1198.6 ± 2.8
313.15 K | 1191.4 ± 2.7
323.15 K | 1184.4 ± 2.7
333.15 K | 1177.4 ± 2.7

CCn1cc[n+](C)c1.F[B-](F)(F)F [1-ethyl-3-methylimidazolium tetrafluoroborate]
[3]
Settings | mass density [kg/m3]
293.1 K | 1284.3 ± 3.2
303.11 K | 1276.5 ± 3.2
313.15 K | 1269.2 ± 3.1
323.14 K | 1261.8 ± 3.1
333.23 K | 1254.6 ± 3
